Legend:
[1] = Increase in mitochondrial DNA level in differentiated mouse 3T3-F442A cells at 10 uM by real-time PCR; type: ADME
[2] = Increase in mitochondrial DNA level in differentiated mouse 3T3-F442A cells at 1 uM by real-time PCR; type: ADME
[3] = Cytotoxicity against differentiated mouse 3T3-F442A cells assessed as effect on total deoxynucleotides content at 1 uM after 2 to 10 days; type: cell-based
[4] = Cytotoxicity against differentiated mouse 3T3-F442A cells assessed as effect on total deoxynucleotides content at 10 uM after 2 to 10 days; type: cell-based
[5] = Cytotoxicity against differentiated mouse 3T3-F442A cells assessed as increase in TTP content after 10 days; type: cell-based; conditions: 240 h
[6] = Cytotoxicity against differentiated mouse 3T3-F442A cells assessed as depletion of mitochondrial DNA level at 10 uM by real-time PCR; type: cell-based
[7] = Cytotoxicity against differentiated mouse 3T3-F442A cells assessed as depletion of mitochondrial DNA level at 1 uM by real-time PCR; type: cell-based
[8] = Cytotoxicity against differentiated mouse 3T3-F442A cells assessed as increase in total deoxynucleotides content at 10 uM after 2 to 10 days; type: cell-based

Row | SMILES | Activity [1] | Activity [2] | Activity [3] | Activity [4] | Activity [5] | Activity [6] | Activity [7] | Activity [8]
1 | Cc1cn([C@H]2C[C@H](N=[N+]=[N-])[C@@H](CO)O2)c(=O)[nH]c1=O [ZIDOVUDINE] | Non-toxic | Non-toxic | Non-toxic | Non-toxic | 35% |  |  | 
2 | Cc1cn([C@H]2C=C[C@@H](CO)O2)c(=O)[nH]c1=O [STAVUDINE] |  |  | Non-toxic | Non-toxic |  | Toxic | Non-toxic | Toxic
